Target: fully phosphorylated, active Mouse ERK2 protein (Mus musculus (Mouse), UniProt P63085)
Assay: Active ERK2 (aERK) IMAP assay
Assay type: biochemical
Conditions: IMAP fluorescence polarization; 30 μM ATP; 30 minute pre-incubation

Sequence of fully phosphorylated, active Mouse ERK2 protein (P63085 whole entry): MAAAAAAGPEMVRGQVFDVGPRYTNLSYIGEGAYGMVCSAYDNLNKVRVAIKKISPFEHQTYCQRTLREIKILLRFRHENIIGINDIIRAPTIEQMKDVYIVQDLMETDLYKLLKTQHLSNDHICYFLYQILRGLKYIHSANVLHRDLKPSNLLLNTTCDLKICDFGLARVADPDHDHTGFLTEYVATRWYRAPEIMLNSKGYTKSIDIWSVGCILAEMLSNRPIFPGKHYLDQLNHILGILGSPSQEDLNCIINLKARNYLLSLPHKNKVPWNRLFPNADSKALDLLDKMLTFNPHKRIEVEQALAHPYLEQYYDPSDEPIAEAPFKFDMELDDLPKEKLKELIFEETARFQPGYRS

Structure (SMILES)	IC50
Cc1cc(-c2n[nH]c3ccc(C(=O)NN4CCCC(Oc5ccccc5Cl)C4)cc23)ccn1 (stereo not shown) [compound 141, N-[3-(2-chlorophenoxy)-1-piperidinyl]-3-(2-methyl-4-pyridinyl)-1H-indazole-5-carboxamide]	0.0844 µM
Cc1cc(-c2n[nH]c3ccc(C(=O)N[C@H]4CCC[C@@](O)(Cn5ncc6cccc(F)c65)C4)cc23)ccn1 (relative stereo) [compound 104, N-[trans-3-[(7-fluoro-1H-indazol-1-yl)methyl]-3-hydroxycyclohexyl]-3-(2-methyl-4-pyridinyl)-1H-indazole-5-carboxamide]	0.0743 µM
Cc1cc(-c2n[nH]c3ccc(C(=O)NC4CCCC(O)(C(O)c5ccccc5)C4)cc23)ccn1 (stereo not shown) [compound 51, N-[3-hydroxy-3-(hydroxyphenylmethyl)cyclohex-yl]-3-(2-methyl-4-pyridinyl)-1H-indazole-5-carboxamide (diasterimer 3)]	0.204 µM
Cc1cc(-c2n[nH]c3ccc(C(=O)NN4CCCC(Oc5ccccc5F)C4)cc23)ccn1 (stereo not shown) [compound 142, N-[3-(2-fluorophenoxy)-1-piperidinyl]-3-(2-methyl-4-pyridinyl)-1H-indazole-5-carboxamide]	0.153 µM
Cc1cc(-c2n[nH]c3ccc(C(=O)NC4CCCC(CO)(Cc5ccccc5F)C4)cc23)ccn1 (mixture of isomers) [compound 130, N-[cis/trans-3-[(2-fluorophenyl)methyl]-3-(hydroxymethyl)cyclohexyl]-3-(2-methyl-4-pyridinyl)-1H-indazole-5-carboxamide]	1 µM
Cc1cc(-c2n[nH]c3ccc(C(=O)NN4CCC(CO)(Cc5ccccc5F)C4)cc23)ccn1 (stereo not shown) [compound 150, N-[3-[(2-fluorophenyl)methyl]-3-(hydroxymethyl)-1-pyrrolidinyl]-3-(2-methyl-4-pyridinyl)-1H-indazole-5-carboxamide]	0.0322 µM
Cc1cc(-c2n[nH]c3ccc(C(=O)N[C@H]4CCC[C@](O)(Cn5c(C)nc6ccccc65)C4)cc23)ccn1 [compound 70]	0.332 µM
Cc1nc2ccc(-c3n[nH]c4ccc(C(=O)N[C@@H]5CCC[C@](O)(Cc6ccccc6F)C5)cc34)cn2n1 [compound 12, N-[3(S)-[(2-fluorophenyl)methyl]-3-hydroxy-1(R)-cyclohexyl]-3-(2-methyl[1,2,4]triazolo[1,5-a]pyridin-6-yl)-1H-indazole-5-carboxamide]	0.0144 µM
Cc1cc(-c2n[nH]c3ccc(C(=O)N[C@@H]4CCC[C@](O)(CN5C(=O)Cc6ccccc65)C4)cc23)ccn1 (relative stereo) [compound 88, N-[trans-3-[(2,3-dihydro-2-oxo-1H-indol-1-yl)methyl]-3-hydroxycyclohexyl]-3-(2-methyl-4-pyridinyl)-1H-indazole-5-carboxamide]	0.497 µM
Cc1nc2ccc(-c3n[nH]c4ccc(C(=O)N[C@@H]5CCC[C@](O)(Cc6ccccc6F)C5)cc34)cc2s1 [compound 13, N-[3(S)-[(2-fluorophenyl)methyl]-3-hydroxy-1(R)-cyclohexyl]-3-(2-methyl-6-benzothiazolyl)-1H-indazole-5-carboxamide]	0.0199 µM
O=C(N[C@@H]1CCC[C@](O)(Cn2ccccc2=O)C1)c1ccc2[nH]nc(-c3ccc4nccn4c3)c2c1 (relative stereo) [compound 85, N-[trans-3-hydroxy-3-[(2-oxo-1(2h)-pyridinyl)methyl]cyclohexyl]-3-imidazo[1,2-a]pyridiN-6-yl-1H-indazole-5-carboxamide]	1 µM
Cc1cc(-c2n[nH]c3ccc(C(=O)N[C@@H]4CCC[C@](O)(Cn5cncn5)C4)cc23)ccn1 (relative stereo) [compound 63, N-[trans-3-hydroxy-3-(1H-1,2,4-triazol-1-ylmethyl)cyclohexyl]-3-(2-methyl-4-pyridinyl)-1H-indazole-5-carboxamide]	0.197 µM
Cc1nc2ccc(-c3n[nH]c4ccc(C(=O)N[C@@H]5CCC[C@](O)(Cc6c(F)cccc6F)C5)cc34)cn2n1 [compound 21, N-[3-(S)-[(2,6-difluorophenyl)methyl]-3-hydroxy-1(R)-cyclohexyl]-3-(2-methyl[1,2,4]triazolo[1,5-a]pyridin-6-yl)-1H-indazole-5-carboxamide]	0.0209 µM
Cc1cc(-c2n[nH]c3ccc(C(=O)N[C@@H]4CCC[C@@](O)(Cn5ncc6cnccc65)C4)cc23)ccn1 (relative stereo) [compound 91, N-[cis-3-hydroxy-3-(1H-pyrazolo[4,3-c]pyridin-1-ylmethyl)cyclohexyl]-3-(2-methyl-4-pyridinyl)-1H-indazole-5-carboxamide]	0.563 µM
Cc1cc(-c2n[nH]c3ccc(C(=O)NC4CCCC(Oc5ccccc5Cl)C4)cc23)ccn1 (single isomer, unassigned) [compound 34, N-[3-(2-chlorophenoxy)cyclohexyl]-3-(2-methyl-4-pyridinyl)-1H-indazole-5-carboxamide]	0.198 µM
Cc1cc(-c2n[nH]c3ccc(C(=O)NC4CCCC(O)(C(=O)c5ccccc5)C4)cc23)ccn1 (stereo not shown) [compound 47, N-(3-benzoyl-3-hydroxycyclohexyl)-3-(2-methyl-4-pyridinyl)-1H-indazole-5-carboxamide]	0.577 µM
Cc1cc(-c2n[nH]c3ccc(C(=O)NC4CCCC(CO)(Oc5cccc(F)c5)C4)cc23)ccn1 (single isomer, unassigned) [compound 44, N-[3-(3-fluorophenoxy)-3-(hydroxymethyl)cyclohexyl]-3-(2-methyl-4-pyridinyl)-1H-indazole-5-carboxamide]	0.214 µM
Cc1cc(-c2n[nH]c3ccc(C(=O)N[C@H]4CCC[C@@](O)(Cn5ncc6ccc(F)cc65)C4)cc23)ccn1 (relative stereo) [compound 100, N-[trans-3-[(6-fluoro-1H-indazol-1-yl)methyl]-3-hydroxycyclohexyl]-3-(2-methyl-4-pyridinyl)-1H-indazole-5-carboxamide]	1 µM
Cc1cc(-c2n[nH]c3ccc(C(=O)NC4CCCC(O)(C(F)(F)c5ccccc5)C4)cc23)ccn1 (stereo not shown) [compound 48, N-[3-(difluorophenylmethyl)-3-hydroxycyclohexyl]-3-(2-methyl-4-pyridinyl)-1H-indazole-5-carboxamide]	0.106 µM
Cc1cc(-c2n[nH]c3ccc(C(=O)NC4CCCC(Oc5c(F)cccc5F)C4)cc23)ccn1 (stereo not shown) [compound 32, N-[3-(2,6-difluorophenoxy)cyclohexyl]-3-(2-methyl-4-pyridinyl)-1H-indazole-5-carboxamide]	0.573 µM
O=C(N[C@@H]1CCC[C@@](O)(Cn2ncc3ncccc32)C1)c1ccc2[nH]nc(-c3ccc4nccn4c3)c2c1 [compound 86, N-[cis-3-hydroxy-3-(1H-pyrazolo[4,3-b]pyridN-1-ylmethyl)cyclohexyl]-3-imidazo[1,2-a]pyridiN-6-yl-1H-indazole-5-carboxamide]	1 µM
Cc1cc(-c2n[nH]c3ccc(C(=O)NN4CCCC(Oc5ccccc5F)C4)cc23)ccn1 (stereo not shown) [compound 143, N-[3-(2-fluorophenoxy)-1-piperidinyl]-3-(2-methyl-4-pyridinyl)-1H-indazole-5-carboxamide]	0.0268 µM
